Where a name gives a salt, the structure may show the parent alone.

For the assay, the target named is T1, BRD4 BD1 (Homo sapiens, UniProt O60885, Y390A).
T1 construct: BRD4 (1-477) (Y97A) and (Y390A); made in house; host or cells: E. coli (pET15b vector)
The assay is described as follows: TR-FRET binding assay, BRD4 BD1 (mutant protein). Conditions: BRD4 (1-477) mutant, 10 nM protein, read-out: pIC50 in the BRD4 BD1 assay (converted). As for the experimental part:
Time Resolved Fluorescence Resonance Energy Transfer (TR-FRET) Assay
Binding was assessed using a time resolved fluorescent resonance energy transfer binding assay. This utilises a 6 His purification tag at the N-terminal of the proteins as an epitope for an anti-6 His antibody labeled with Europium chelate (PerkinElmer AD0111) allowing binding of the Europium to the proteins which acts as the donor fluorophore. A small molecule, high affinity binder of the bromodomains BRD2, BRD3, BRD4 and BRDT has been labeled with Alexa Fluor647 (Reference Compound X) and this acts as the acceptor in the FRET pair.
Assay Principle: In the absence of a competing compound, excitation of the Europium causes the donor to emit at λ618 nm which excites the Alexa labelled bromodomain binding compound leading to an increased energy transfer that is measurable at λ647 […]. In the presence of a sufficient concentration of a compound that can bind these proteins, the interaction is disrupted leading to a quantifiable drop in fluorescent resonance energy transfer.
The binding of the compounds of formula (I) to Bromodomains BRD2, BRD3, BRD4 and BRDT was assessed using mutated proteins to detect differential binding to either Binding Domain 1 (BD1) or Binding Domain 2 (BD2) on the bromodomain. These single residue mutations in the acetyl lysine binding pocket greatly lower the affinity of the fluoroligand (Reference Compound X) for the mutated domain (>1000 fold selective for the non-mutated domain). Therefore in the final assay conditions, binding of the fluoroligand to the mutated domain cannot be detected and subsequently the assay is suitable to determine the binding of compounds to the single non-mutated bromodomain.
Protein production: Recombinant Human Bromodomains [(BRD2 (1-473) (Y113A) and (Y386A), BRD3 (1-435) (Y73A) and (Y348A) BRD4 (1-477) (Y97A) and (Y390A) and BRDT (1-397) (Y66A) and (Y309A)] were expressed in E. coli cells (in pET15b vector for BRD2/3/4 and in pET28a vector for BRDT) with a 6-His tag at the N-terminal. The His-tagged Bromodomain pellet was resuspended in 50 mM HEPES (pH7.5), 300 mM NaCl, 10 mM imidazole & 1 μl/mL protease inhibitor cocktail and extracted from the E. coli cells using sonication and purified using a nickel sepharose high performance column, the proteins were washed and then eluted with a linear gradient of 0-500 mM imidazole with buffer 50 mM HEPES (pH7.5), 150 mM NaCl, 500 mM imidazole, over 20 column volumes. Final purification was completed by Superdex 200 prep grade size exclusion column. Purified protein was stored at −80° C. in 20 mM HEPES pH 7.5 and 100 mM NaCl. Protein identity was confirmed by peptide mass fingerprinting and predicted molecular weight confirmed by mass spectrometry.
Protocol for Bromodomain BRD2, 3, 4 and T, BD1^+BD2 mutant assays: All assay components were dissolved in buffer composition of 50 mM HEPES pH7.4, 50 mM NaCl, 5% Glycerol, 1 mM DTT and 1 mM CHAPS. The final concentration of bromodomain proteins were 10 nM and the Alexa Fluor647 ligand was at Kd. These components were premixed and 5 μl of this reaction mixture was added to all wells containing 50 nl of various concentrations of test compound or DMSO vehicle (0.5% DMSO final) in Greiner 384 well black low volume microtitre plates and incubated in dark for 30 minutes at room temperature. 5 μl of detection mixture containing 1.5 nM final concentration anti-6His Europium chelate was added to all wells and a further dark incubation of at least 30 minutes was performed. Plates were then read on the Envision platereader, (λex=317 nm, donor λem=615 nm; acceptor λem=665 nm; Dichroic LANCE dual). Time resolved fluorescent intensity measurements were made at both emission wavelengths and the ratio of acceptor/donor was calculated and used for data analysis. All data was normalized to the mean of 16 high (inhibitor control—Example 11 of WO 2011/054846A1) and 16 low (DMSO) control wells on each plate. […]
(In general: In TR-FRET formats the signal depends on donor and acceptor labels being close together.)
As for `C[C@@H]1CN(S(C)(=O)=O)CCN1Cc1cc2c(=O)n(C)cc(-c3ncccc3OCC3CC3)c2o1` [Example 44, (R)-7-(3-(cyclopropylmethoxy)pyridin-2-yl)-5-methyl-2-((2-methyl-4-(methylsulfonyl)piperazin-1-yl)methyl)furo[3,2-c]pyridin-4(5H)-one], the IC50 was no more than 100 nM.

As for `C[C@@H]1CN(S(C)(=O)=O)CCN1Cc1cc2c(=O)n(C)cc(-c3ccncc3OCC3CCO3)c2o1` (stereo partly drawn) [Example 41, 5-methyl-2-(((R)-2-methyl-4-(methylsulfonyl)piperazin-1-yl)methyl)-7-(3-(oxetan-2-ylmethoxy)pyridin-4-yl)furo[3,2-c]pyridin-4(5H)-one], the IC50 was no more than 100 nM.

As for `CC(Nc1cccc(-c2cn(C)c(=O)c3cc(CN4CCN(S(C)(=O)=O)CC4)oc23)c1)c1ccccc1` (centres unmarked) [Example 15, 5-methyl-2-((4-(methylsulfonyl)piperazin-1-yl)methyl)-7-(3-((1-phenylethyl)amino)phenyl)furo[3,2-c]pyridin-4(5H)-one], the IC50 was no more than 100 nM. Consider `Cn1cc(-c2ccc(C(=O)O)cc2OCC2CC2)c2oc(CN3CCN(S(C)(=O)=O)CC3)cc2c1=O` [Example 67, 3-(cyclopropylmethoxy)-4-(5-methyl-2-((4-(methylsulfonyl)piperazin-1-yl)methyl)-4-oxo-4,5-dihydrofuro[3,2-c]pyridin-7-yl)benzoic acid], for which the IC50 is no more than 10 nM. Next, `C[C@@H]1CN(S(C)(=O)=O)CCN1Cc1cc2c(=O)n(C)cc(-c3ccncc3O)c2o1` [Example 60, (R)-7-(3-hydroxypyridin-4-yl)-5-methyl-2-((2-methyl-4-(methylsulfonyl)piperazin-1-yl)methyl)furo[3,2-c]pyridin-4(5H)-one]: no more than 100 nM.

For `COCCOc1cc(-c2cn(C)c(=O)c3cc(CN4CCN(S(C)(=O)=O)C[C@H]4C)oc23)ccn1` [Example 26, (R)-7-(2-(2-methoxyethoxy)pyridin-4-yl)-5-methyl-2-((2-methyl-4-(methylsulfonyl)piperazin-1-yl)methyl)furo[3,2-c]pyridin-4(5H)-one], the IC50 was no more than 100 nM. `C[C@@H]1CN(S(C)(=O)=O)CCN1Cc1cc2c(=O)n(C)cc(-c3cccc(NC(=O)CCCCN)c3)c2o1` [Example 64, (R)-5-amino-N-(3-(5-methyl-2-((2-methyl-4-(methylsulfonyl)piperazin-1-yl)methyl)-4-oxo-4,5-dihydrofuro[3,2-c]pyridin-7-yl)phenyl)pentanamide hydrochloride]: the IC50 was no more than 100 nM. For `C[C@@H]1CN(S(C)(=O)=O)CCN1Cc1cc2c(=O)n(C)cc(-c3ccncc3OCC3CCCO3)c2o1` (stereo partly drawn) [Example 70, 5-methyl-2-(((R)-2-methyl-4-(methylsulfonyl)piperazin-1-yl)methyl)-7-(3-((tetrahydrofuran-2-yl)methoxy)pyridin-4-yl)furo[3,2-c]pyridin-4(5H)-one], the IC50 was no more than 100 nM. For `C[C@@H]1CN(S(C)(=O)=O)CCN1Cc1cc2c(=O)n(C)cc(-c3ccncc3NCC3CC3)c2o1` [Example 40, (R)-7-(3-((cyclopropylmethyl)amino)pyridin-4-yl)-5-methyl-2-((2-methyl-4-(methylsulfonyl)piperazin-1-yl)methyl)furo[3,2-c]pyridin-4(5H)-one], the IC50 is no more than 100 nM. With `C[C@@H]1CN(S(C)(=O)=O)CCN1Cc1cc2c(=O)n(C)cc(-c3ccncc3OCC3CCOC3)c2o1` (stereo partly drawn) [Example 69, 5-methyl-2-(((R)-2-methyl-4-(methylsulfonyl)piperazin-1-yl)methyl)-7-(3-((tetrahydrofuran-3-yl)methoxy)pyridin-4-yl)furo[3,2-c]pyridin-4(5H)-one] the figure was no more than 100 nM; with `CC(C)Oc1cnccc1-c1cn(C)c(=O)c2cc(CN3CCN(S(C)(=O)=O)C[C@H]3C)oc12` [Example 58, (R)-7-(3-isopropoxypyridin-4-yl)-5-methyl-2-((2-methyl-4-(methylsulfonyl)piperazin-1-yl)methyl)furo[3,2-c]pyridin-4(5H)-one], no more than 100 nM.

The values above are taken from patent US9670221B2, “Furopyridines as bromodomain inhibitors” (GlaxoSmithKline Intellectual Property (No.2) Limited, priority 2013, dated 2017).
